Measured values from ChEMBL document CHEMBL1127315, “Substituted O6-benzylguanine derivatives and their inactivation of human O6-alkylguanine-DNA alkyltransferase” (J Med Chem, 1994).
Calls of active or inactive are those of the source. The rule behind the calls is not given here.

Experiments:
[1] = target: T1, Methylated-DNA--protein-cysteine methyltransferase (Homo sapiens) (UniProt P16455); assay: Tested for the effective dose required to produce 50 percent inactivation of O6-alkylguanine-DNA alkyltransferase in HT-29 cell free extract; Inactive
T1 sequence (whole entry): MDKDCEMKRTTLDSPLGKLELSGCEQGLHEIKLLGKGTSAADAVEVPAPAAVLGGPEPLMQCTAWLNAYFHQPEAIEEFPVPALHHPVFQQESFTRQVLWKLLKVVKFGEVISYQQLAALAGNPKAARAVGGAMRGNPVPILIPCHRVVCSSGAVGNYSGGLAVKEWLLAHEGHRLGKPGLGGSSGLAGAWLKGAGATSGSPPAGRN

[2] = target: T1, Methylated-DNA--protein-cysteine methyltransferase (Homo sapiens); conditions: HT-29
[3] = target: T1, Methylated-DNA--protein-cysteine methyltransferase (Homo sapiens); conditions: HT-29; remark: listed apart in the source

Nc1nc(Oc2ccccc2)c2[nH]cnc2n1
ED50 [1]: inactive

CC12CCC(=O)C=C1CCC1C2CCC2(C)C(OC(=O)Cn3cnc4c(OCc5ccccc5)nc(N)nc43)CCC12 (stereo not given)
ED50 [2]: 5000 nM | ED50 [3]: 500 nM

C[C@]12CC[C@H]3[C@@H](CCC4CC(=O)CC[C@@]43C)[C@@H]1CC[C@@H]2OC(=O)Cn1cnc2c(OCc3ccccc3)nc(N)nc21 (stereo not given in full)
ED50 [2]: 4000 nM | ED50 [3]: 500 nM
